In publication PMC11864979, “First-in-class ultralong-target-residence-time p38α inhibitors as a mitosis-targeted therapy for colorectal cancer” (Nature Cancer, 2025):
“And” between values parts separate entries of the source, which are not always exact repeats. Equal values may be shown once.

Legend:
[1] = test system: immune cells; test: FACS quantification of immune cells in blood, spleen, liver and tumors of treated mice;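 as to CD4+, % of CD3+ cells: blood spleen or tumors of KAP liver metastasis mice after 4 days treatment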;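 as to CD69+ % of CD4+ T cells: tumor-free livers or KAP liver tumors after 4 days treatment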;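 as to CD69+ % of CD8+ T cells: tumor-free livers or KAP liver tumors after 4 days treatment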;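 as to CD69+ % of T cells: tumor-free livers or KAP liver tumors after 4 days treatment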;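 as to CD8+, % of CD3+ cells: blood spleen or tumors of KAP liver metastasis mice after 4 days treatment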; assay type: in vivo, mouse; settings: for CD4+, % of CD3+ cells / CD8+, % of CD3+ cells / CD69+ % of CD4+ T cells / CD69+ % of CD8+ T cells / CD69+ % of T cells: single animals; for CD4+, % of CD3+ cells / CD8+, % of CD3+ cells: Fig. 6f; for CD69+ % of CD4+ T cells / CD69+ % of CD8+ T cells / CD69+ % of T cells: Fig. 6g; for B cells, % of living cells / CD4+ T cells, % of living cells / CD8+ T cells, % of living cells / Dendritic cells, % of living cells / Granulocytes, % of living cells / Monocytes, % of living cells / NK cells, % of living cells / T cells, % of living cells: spleen, 4 d of treatment
Description: To determine immune cells, cell suspensions of peripheral blood, spleen, liver or tumors were prepared. Cells were lysed with ammonium chloride buffer ([…], 0.1 mM EDTA and 0.150 mM KHCO3) to eliminate erythrocytes and were stained with antibodies from Biolegend and the live–dead fixable aqua dead cell stain kit (Thermo Fisher Scientific; dilution: 1:1,000). All used antibodies and dilutions are listed in the Nature Portfolio Reporting Summary. Cells were analyzed with the LSR Fortessa (BD). Samples were gated on single viable cells and the percentage of NK cells (NK1.1^+CD3^−), T cells (CD3^+NK1.1^−), CD4^+ T cells (CD3^+NK1.1^−CD4^+CD8a^−), CD8^+ T cells (CD3^+NK1.1^−CD8a^+CD4^−), B cells (CD3^−NK1.1^−CD19^+Ly6G^−), dendritic cells (CD3^−NK1.1^−CD19^−CD11c^+), monocytes (CD3^−NK1.1^−CD19^−CD11c^−Ly6Ghigh^+CD16/32low^+) and granulocytes (CD3^−NK1.1^−CD19^−CD11c^−Ly6G^+CD16/32high^+) was calculated.

[2] = cell viability in healthy human colon organoids SCC321; assay type: cell-based; settings: male, human, replicates
Description: (§1) Primary tumor material was chopped, washed in ice-cold medium and transferred into basic medium (Supplementary Table 17), supplemented with 2.5 mg ml^−1 collagenase II (Thermo Fisher Scientific), 2.5 mg ml^−1 collagenase XI (Sigma-Aldrich), 1 mg ml^−1 Dispase II (Sigma-Aldrich), 100 µg ml^−1 DNase I and 10.5 µM Y-27632 dihydrochloride (Invitrogen). Tumor digestion was performed at 37 °C and stopped by adding medium containing 10% FBS. The mixture was centrifuged for 5 min at 300g. Red blood cells were removed with ACK lysing buffer (Thermo Fisher Scientific; 5 min at room temperature) and the pellet was resuspended in medium. Approximately 1,000 cells were resuspended and plated in 50 µl of Cultrex RGF BME, type 2 (R&D Systems). The ascites material was pelleted by centrifugation at 300g and washed three times with ice-cold PBS. Human CRC organoids were cultured in human CRC medium (Supplementary Table 17) at 37 °C and 7% CO2. Within the first week, the medium was supplemented with 10.5 µM Y-27632 dihydrochloride (Invitrogen). The human colon organoids (SCC311 and SCC321) were purchased from Sigma-Aldrich and cultured in human colon medium (Supplementary Table 17) at 37 °C and 7% CO2. They were derived from participants with the following sex and age: […].
(§2) For in vitro treatment studies, organoids were mechanically dissociated and digested using TrypLE supplemented with 100 µg ml^−1 DNaseI and 10.5 µM Y-27632 dihydrochloride (Invitrogen) at 37 °C. A total of 1,000–2,000 single cells were plated per well in white 96-well plates (Greiner) in culture medium containing 10% GFR Matrigel or Cultrex BME. The treatment with doxycycline (5 µg ml^−1), pharmacological inhibitors or corresponding volumes of DMSO was started 24 h after plating. Doxycycline was obtained from Sigma-Aldrich. […] Cell viability was measured by means of CellTiter-Glo 3D or CellTiter-Glo 2.0 reagent (Promega) according to the manufacturers’ instructions and the Infinite M Plex reader (Tecan, i-control version 3.9.1 software). Results were normalized to vehicle (DMSO) or to shNC. For cell-doubling assays, the cell number was quantified at the corresponding time points using Guava EasyCyte flow cytometer (Luminex, CytoSoft v5.2 software).

[3] = test system: SCC321 human colon organoids; test: as above; assay type: cell-based; settings: for Cell viability (%): ED Fig. 10g, replicates
Description: as §1, §2

[4] = test system: KMP primary CRCs; test: survival of mice with KMP primary CRCs (cecum injection); assay type: in vivo, mouse
Description: Subcutaneous injection, splenic seeding or cecum injection of organoids was performed in 8–10-week-old C57BL/6 N/Crl, Rag2^−/− (B6.Cg-Rag2^tm1.1Cgn/J), or CB17 Scid beige (CB17.Cg-Prkdc^scidLyst^bg-J/Crl) mice, obtained from Charles River. The organoids were dissociated into single cells, washed with PBS and injected in a 1:1 mixture of PBS and Matrigel. For murine organoids, 1 × 10^5 cells were injected into the left and right flanks or the spleen capsule and 2 × 10^6 cells were injected into the cecum wall. For human organoids, 4 × 10^5 cells were injected into the flanks of CB17 Scid beige mice. For splenic seeding and cecum injection, mice were anaesthetized using ketamine (100 mg kg^−1, intraperitoneally) and xylazin (10 mg/kg, intraperitoneally) in NaCl and a small laparotomy below the thorax was performed.

[5] = full blood analysis of mice treated for 4 days or 10 weeks (Sysmex KX-21N); assay type: in vivo, mouse; settings: for Hemoglobin / MCV / MCH / MCHC: individual animals; for Hemoglobin: ED Fig. 10a; for MCV: ED Fig. 10b; for MCH: ED Fig. 10c; for MCHC: ED Fig. 10d; for Hematocrit (%): mice
From the text: We conducted a daily treatment of wild-type mice with 2015 or carrier for either 4 days or 10 weeks and subsequently quantified leukocytes, platelets and erythrocytes. Furthermore, we determined the hematocrit and the hemoglobin concentration and calculated routinely used red blood cell indices (mean corpuscular volume (MCV), mean corpuscular hemoglobin (MCH) and mean corpuscular hemoglobin concentration (MCHC)). […] No mice were excluded during treatment studies. […] GFP imaging of tumors was performed using a Hamamatsu imaging system. For quantification of compounds in the murine plasma, 20 μl of tail-vein blood was diluted with 80 μl of heparin solution, before 200 μl of ice-cold acetonitrile with a defined internal standard was added. The samples were sonicated and centrifuged and the supernatant was subjected to liquid chromatography-mass spectrometry quantification. Full blood analyses were performed with the Sysmex KX-21N hematology analyzer.

[6] = histological evaluation of small intestine, colon and liver of treated mice; assay type: in vivo, mouse
Description: Histopathological evaluation of colorectal tumors and healthy tissues was performed by experienced pathologists (S.S. for murine or human tumors and tissues; G.O. for human tumors). Hematoxylin and eosin (H&E) staining was performed on paraffin-embedded sections using 0.5% eosin and 0.5% hematoxylin.

[7] = cell viability after 2015, Navitoclax or 2015 + Navitoclax (Fig. 5f); assay type: cell-based; parameters: concentration or dose not given beside the values; settings: replicates
[8] = 4 days or 10 weeks daily treatment

## CNC(=O)c1ccc2c(c1)C(=O)c1ccc(Nc3ccc(F)c(NC(=O)C4CC4)c3)cc1CC2 [Compound 2015]
[1]; 4 days of treatment
  CD4^+ T cells in CRC liver metastases (in words): increases the number of CD4^+ T cells
[1]; Blood
  CD4+, % of CD3+ cells: 59.0% and 54.5% and 53.0% and 56.9%
  CD8+, % of CD3+ cells: 35.8% and 35.1% (2×) and 39.0%
[1]; Liver
  CD69+ % of CD4+ T cells: 11.90% and 8.89% and 6.59% and 10.70%
  CD69+ % of CD8+ T cells: 5.92% and 8.71% and 6.52% and 6.93%
  CD69+ % of T cells: 9.86% and 8.16% and 6.40% and 10.30%
[1]; Spleen
  CD4+, % of CD3+ cells: 67.8% and 63.7% and 64.1% and 65.2%
  CD8+, % of CD3+ cells: 25.5% and 28.8% and 28.3% and 27.0%
[1]; Tumor
  CD4+, % of CD3+ cells: 74.4% and 79.8% and 62.9%
  CD8+, % of CD3+ cells: 13.6% and 8.5% and 20.0%
  CD69+ % of CD4+ T cells: 56.80% and 69.90% and 47.60%
  CD69+ % of CD8+ T cells: 44.60% and 54.20% and 52.00%
  CD69+ % of T cells: 49.80% and 60.30% and 42.10%
[1]; healthy mice
  B cells, % of living cells: 45.80% and 42.90% and 40.80% and 40.90%
  CD4+ T cells, % of living cells: 22.70% and 22.50% and 25.00% and 24.30%
  CD8+ T cells, % of living cells: 10.00% and 8.13% and 10.80%
  Dendritic cells, % of living cells: 2.32% and 3.09% and 2.65% and 2.11%
  Granulocytes, % of living cells: 4.12% and 5.18% and 4.35% and 4.21%
  Monocytes, % of living cells: 2.59% and 2.56% and 2.30% and 2.36%
  NK cells, % of living cells: 2.30% and 4.22% and 4.00% and 4.77%
  T cells, % of living cells: 35.20% and 32.90% and 37.90% and 36.50%
[1]; tumor mice (KAP metastases)
  B cells, % of living cells: 40.60% and 49.20% and 45.00% and 44.10%
  CD4+ T cells, % of living cells: 26.10% and 18.70% and 20.10% and 20.40%
  CD8+ T cells, % of living cells: 9.80% and 8.43% and 8.87% and 8.45%
  Dendritic cells, % of living cells: 3.14% and 2.58% and 3.53% and 2.01%
  Granulocytes, % of living cells: 3.71% and 4.06% and 4.14% and 4.54%
  Monocytes, % of living cells: 3.31% and 3.61% and 4.85% and 6.16%
  NK cells, % of living cells: 3.40% and 4.06% and 3.95% and 4.77%
  T cells, % of living cells: 38.40% and 29.30% and 31.40% and 31.30%
[2]; healthy human colon organoids SCC321, 2015 0,25 µM, ED Fig. 10g
  viability at 25 µM: 105%
[2]; healthy human colon organoids SCC321, 2015 0, ED Fig. 10g
  viability at 5 µM: 109%
[2]; healthy human colon organoids SCC321, 2015 1 µM, ED Fig. 10g
  viability at 1 µM: 86.9%
[3]; 2015 0,5 µM, 5 µM
  Cell viability (%): 115.51% and 112.50%
[3]; 2015 0,25 µM, 25 µM
  Cell viability (%): 100.29% and 98.19%
[3]; 2015 1 µM
  Cell viability (%): 83.04% and 75.31%
[3]; SCC321, 4 d
  response of healthy human colon culture (in words): only a very weak response
[4]; individual mice, KMP primary CRC, treatment started 9 days after transplantation
  Survival (d of treatment): 24 days and 15 days and 11 days and 25 days and 21 days and 13 days and 18 days
[4]; individual mice, KMP primary CRC, meaning of 1/0 not given
  Kaplan–Meier event entry in 2015 (1 or 0): 1 and 0
[4]; start 9 days after organoid injection
  survival of mice with KMP primary CRC (in words): significantly prolonged survival
[5]; [8]
  blood cell fractions versus carrier (in words): no relevant differences
[5]; mice treated 10w
  Hemoglobin: 14.6 g/dL and 14.3 g/dL and 13.7 g/dL and 14.0 g/dL
  MCV: 52.0 fL and 52.3 fL and 51.4 fL and 51.7 fL
  MCH: 14.2 pg and 14.0 pg and 13.8 pg
  MCHC: 27.4 g/dL and 26.8 g/dL and 26.9 g/dL and 26.6 g/dL
[5]; mice treated 4d
  Hemoglobin: 14.7 g/dL and 15.4 g/dL and 14.6 g/dL and 14.5 g/dL
  MCV: 52.3 fL and 51.8 fL and 51.9 fL and 51.5 fL
  MCH: 14.5 pg and 14.4 pg and 13.7 pg
  MCHC: 27.7 g/dL and 26.4 g/dL and 26.6 g/dL
[5]; 10w treatment
  Hematocrit (%): 53.3% and 53.4% and 50.9% and 52.6%
[5]; 4d treatment
  Hematocrit (%): 53.1% and 55.5% and 55.2% and 54.6%
[6]; [8]
  intestinal epithelium (in words): did not influence the regeneration of intestinal epithelium
[6]; short-term and long-term treatment
  liver damage (in words): no signs for liver damage
[7]
  Cell viability: 58.51% and 44.25% and 42.17%
